{"source": "patent US12663426B2", "about": "“Method and composition for measurement of nitric oxide” (The University of Chicago, priority 2019, dated 2026)", "key": {"[1]": {"test_system": "S-nitrosylation at the Golgi", "test": "Anti-S-nitrosocysteine immunostaining of T-47D cells", "assay_type": "cell-based", "experimental": "(§1) Immunofluorescence staining. Cells were cultured on a glass bottom 3.5 cm imaging dish to reach 60% confluency. […] Treated cells were then washed three times with 1× PBS (pH 7.4) and fixed using, 4% paraformaldehyde at room temperature (RT, 15 min). Subsequently, cells were permeabilized using 0.25% triton X-100 followed by blocking using 3% BSA in 1× PBS. Cells were then incubated with indicated primary antibodies—mouse monoclonal anti-eNOS antibody (SantaCruz Cat #sc-376751), Polyclonal Anti-S-nitrosocysteine antibody (Abeam Cat #ab94930 or Abeam Cat #ab50185), Rabbit polyclonal Anti-Giantin antibody (Abeam Cat #ab24586) or Mouse monoclonal Anti-GM130 antibody (BD Biosciences Cat #610822) in blocking buffer (3% BSA in 1× 4 PBS) for 1 hour at RT. Cells were then washed for 5 min with 1× PBS (3×). Respective secondary antibodies conjugated with either Alexafluor 488 or Alexafluor 647 were added to the cells and incubated for 1 hr at RT. Cells were washed again to remove excess secondary antibody using 1× PBS for 5 min (3×). Hoechst 33342 (5 μM) was added 10 min prior to imaging to stain nuclear DNA. Cells were then imaged on a Leica SP8 laser scanning confocal microscope using excitation wavelengths 405 nm (Hoechst), 488 nm (AlexaFluor 488) and 647 nm (AlexaFluor 647). Images were processed using Fiji and maximum z-projection of 2-3 z-planes are used in representative images.\nIn order to address the significance of the […] population of NOS3 at the TGN, T-47D cells were immunostained using an antibody specific to S-nitrosocysteine.\nSimilar observations were made in MCF-7 cells upon NO depletion (FIG. 23). These studies reveal that the Golgi is a cellular hot-spot for 5-nitrosylation of proteins by NOS3, where it is essential for the maintenance of Golgi architecture in breast cancer cells. […] In addition to Golgi fragmentation, NO scavenging also hampered cell growth by inducing cell sensescence (FIG. 24)."}, "NOS2": {"target": "T1, NOS2 (Mus musculus, UniProt P29477)", "T1 construct": "J774A.1 cells were treated with 1 μg/mL LPS for 12 h prior to the addition of NOckout; endogenous in cells; host or cells: J774A.1 macrophages primed with LPS", "test": "In cellulo specificity of NOckout to NO in LPS primed J774A.1 cells", "assay_type": "cell-based", "settings": "LPS primed J774A.1 cells, 1400 W 10 μM", "method": "Pharmacological inhibition: Pharmacological inhibition of different enzymes were performed by employing known inhibitors. […] Cells were bathed in inhibitors 1 h prior to the addition of NOckout probes during the specificity experiment performed in J774A.1 cells.\nIn cellulo specificity of NOckout to NO: In cellulo specificity of the NOckout probe towards NO^− was validated in J774A.1 cells. […] J774A.1 cells were treated with 1 μg/mL LPS for 12 h prior to the addition of NOckout (500 nM in HBSS) either in the presence or in absence of specific inhibitors. LPS addition was employed to induce the expression of NOS2NOX and MPO. […] After 90 minutes of incubation with the NOckout culture media was removed from the cells and three washes were performed using HBSS to remove extracellular NOckout before proceeding to the fluorescence imaging. […]\nThe in-cell specificity of NOckout can be evaluated by measuring the contribution of the reactive species produced by NOX, MPO and NOS2 to the observed fold change in G/R ratio upon LPS stimulation. […] As NOS2 activity is not pan-endosomal, specificity is given by quantifying the percentage of endosomes that show G/R values higher than the mean G/R value in endosomes of unstimulated, NOS2 inhibited cells, as the latter corresponds to basal endosomal NO levels (FIG. 6c)."}, "T-47D cells": {"test_system": "T-47D cells", "test": "Golgi fragmentation (Giantin/GM130 immunofluorescence)", "assay_type": "cell-based", "experimental": "as §1\nGolgi fragmentation was quantified with immunofluorescence images of Golgi structural protein Giantin. Merge images of Hoechst and Giantin allowed identification of cell numbers and enumeration of Golgi fragments per cell (≤3 Golgi fragments per cell was considered intact Golgi) (Lee, J. E. et al. Dependence of Golgi apparatus integrity on nitric oxide in vascular cells: implications in pulmonary arterial hypertension. Am. J. Physiol. Heart Circ. Physiol. 300, H1141-58 (2011)). […]\nSmall molecule inhibitors were then screened to identify the molecular pathway by which NOS3 inhibition induces Golgi fragmentation. This is based on the rationale that inhibiting a protein on this pathway should also block methylene blue-induced Golgi fragmentation. […] A range of small molecule inhibitors against kinases that have previously ascribed roles in Golgi fragmentation were then used. DNA-PK with NU7441 was ruled out (Farber-Katz, S. E. et al. DNA damage triggers Golgi dispersal via DNA-PK and GOLPH3. Cell 156, 413-427 (2014)). Compounds containing an indirubin core have broad specificity for Cyclin dependent kinases (CDKs) and Src kinases. […] CDK1, CDK2 and CDK5 were ruled out, using (R)-Roscovitine (Rosco)."}, "TLR-9 and TLR-21": {"test_system": "TLR-9 and TLR-21", "test": "Phagosomal NO in zebrafish microglia with NOckout^zCpG", "assay_type": "in vivo", "description": "Zebrafish brain was imaged in the optic tectum using an upright Zeiss LSM-710 confocal microscope equipped with water immersion objectives (20×, or 40×). Zebrafish larvae (3-4 dpf were mounted dorsally in a 1.5% low-melting point agar-bed on a confocal imaging dish (3.5 cm glass bottom). E3-containing 0.003% MS-222 was present in the imaging dish though out the imaging section. For NOckout injected samples, images were acquired simultaneously in GFP, DAR, and A647N channels using excitation wavelengths 488 nm, […] from Argon-ion (488 nm), Helium-Neon (543 nm & 632 nm) laser sources respectively. pHrodo was imaged using the same settings as that of DAR.\nImage analysis: A MATLAB based program called Findosome was used to calculate the (G/R) values of individual endosomes from the acquired images. […] For each ROI, the program calculates fluorescence intensities both in the normalizing channel (A647, R) as well as in the DAR (G) channel. […] From the results, (G/R) value for individual endosomes can be calculated. Phagosomal (G/R) values from the zebrafish microglia are calculated using Fiji software. […] Fluorescence intensities in A647 and DAR channels were calculated. […] For (G/R) ratio quantification experiments, only those vesicles that are present in both green (G) and red (R) channels were considered. […]"}, "NOS3": {"target": "T2, NOS3 (Homo sapiens, UniProt P29474)", "T2 construct": "endogenous, basal NOS3 activity was estimated at each of these sub-cellular locations in T-47D cells; endogenous in cells; host or cells: T-47D cells", "test": "Steady state NOS3 activity imaging at plasma membrane and TGN with NOckout probes", "assay_type": "cell-based", "settings": "T-47D cells", "method": "Image acquisition. T-47D cells were maintained as mentioned above in the cell culture section. Cells were washed twice with Hank's balanced salt solution (HBSS) before incubating them with 500 nM NOckout^TGN for 30 min or 500 nM NOckout^PM for 10 min at 37° C. followed by 3 washes with HBSS solution to remove any unloaded sensors. For steady state imaging (FIG. 1), cells were treated with indicated agonists or antagonists for 1 hr in complete RPMI-1640 medium. Care was taken not to exceed the final concentration of DMSO>1% at any time of the experiment. Additionally, 1% DMSO was used as a negative control in untreated (Basal) cells. […] The cells are then washed and imaged (FIG. 1f).\nFor simultaneous imaging cells were treated with 500 nM NOckout^TGN for 30 min where last 10 min cells were co-incubated with 500 nM NOckout^PM. In order to achieve lowest signal (PTIO, FIG. 1e-f) or to achieve bleaching profile (PTIO, FIG. 3e) cells were pre-treated with 500 μM PTIO for 15 minutes. Images were captured on a Laser scanning confocal Leica SP8 microscope using 63×, 1.4UV NA objective. Desired excitation and emission wavelengths was achieved using white light laser along with notch filters and acousto-optical tunable filters. A488, DAR and A647 were imaged using the following settings—Alexa488 (λex=488 nm, λem=500 nm to 540 nm), DAR (λex=554 nm, λem=565 nm to 610 nm) and Alexa647 (λex=647 nm, λem=665 nm to 710 nm).\nImage analysis was performed using Fiji (Schindelin, J. et al. Fiji: an open-source platform for biological-image analysis. Nat Methods 9, 676-682 (2012)). Auto-fluorescence was subtracted from images for ratiometric analysis. For representation, images were further processed by smooth and despeckle functions. In order to present G/B or G/R images, a mask for each image was constructed using Otsu thresholding method, and mask-multiplied images were used for division. The ROI plugin in Fiji was used to select either TGN (Alexa647 channel) or PM (Alexa488 channel) and these ROIs were recalled in DAR channel to measure intensity in all three channels.\nNext, endogenous, basal NOS3 activity was estimated at each of these sub-cellular locations in T-47D cells without explicitly activating NOS3. To do this, the ratiometric NOckout^PM response, i.e. the G/B ratio, was first measured under conditions where cells were depleted of NO using the NO scavenger 2-phenyl-4,4,5,5-tetramethylimidazoline-1-oxyl 3-oxide (PTIO, 300 μM) (Goldstein, S., Russo, A. & Samuni, A. Reactions of PTIO and carboxy-PTIO with *NO, *NO2, and O2−*. J Biol. Chem. 278, 50949-50955 (2003)). […] These two extreme cases provide the minimum and maximum G/B signals afforded by NOckout^PM in the cell (FIG. 1e-f). The G/B values under any subsequent condition are normalized to the maximum G/B signal. […]"}}, "data": [{"smiles": "CC(=N)NCc1cccc(CN)c1", "note": "[1400 W]", "values": [{"measurement": "S-nitrosylation at the Golgi", "setting": "[1]", "value": "no change"}, {"measurement": "reduction of NOckout signal", "setting": "NOS2", "value": "~50", "unit": "%"}, {"measurement": "Golgi fragmentation by treatment alone", "setting": "T-47D cells", "value": "none of these treatments fragmented the Golgi"}, {"measurement": "reduction of phagosomal G/R versus NOckout^zCpG", "setting": "TLR-9 and TLR-21", "value": "~50", "unit": "%"}, {"measurement": "G/B and G/R values of NOckout probes (NOS3 activity)", "setting": "NOS3", "value": "no effect"}]}]}
